Laboratory results reported in US8883124B2, “Use of fullerenes in photoacoustic imaging” (University of Florida Research Foundation, Inc., priority 2007, dated 2014).

How the values were obtained:
[1] = system: mouse tumor; experiment: In vivo PAT of mouse tumor after intratumoral injection
Experimental: In vivo experiments were carried with mouse tumor model. Six to eight week old BALB/c nude mice (CAnN.Cg-Foxn1nu/Crl) were purchased from Charles River and acclimated for 7 to 10 days. Supplemental estrogen (2 μg of 17β-estradiol valerate/week) was placed subcutaneously at least 1 week prior to tumor implantation. Mice were subcutaneously inoculated with 2×10^7 BT474 cells on the abdominal wall. Experiments were conducted 7-10 days following implantation, after the tumors had reached approximately 10 mm in size.
A volume of 30 μL of nanoparticle suspension (10 mg/mL for PHF and 0.45 mg/mL for CP-0.25) was injected into the mouse tumor. The mouse was placed in the water tank on an inclined plane with its head above the water surface. The PAT instrumentation for in vivo experiments was similar to that described for in vitro experiments, except that acoustic signals were collected over 300° range, giving a total of 100 measurements for each trial. PAT images of mouse tumor were obtained before and after injecting nanoparticles.

[2] = Water solubility; format: physicochemical

Polyhydroxy fullerenes [PHF]
PAT signal in the region of the tumor after injection ([1]; mouse tumor (BT474, BALB/c nude mice), intratumoral injection of 30 μL of 10 mg/mL, before vs after): large increase in PAT signal
contrast with the tumor and surrounding non-tumoral tissue in vivo using PAT ([1]; mouse tumor, 30 μL intratumoral, 10 mg/mL for PHF and 0.45 mg/mL for CP-0.25): excellent contrast
water solubility [2]: water-soluble
